Results as given in the supplement of paper PMC10307832.

Legend:
Assay in all cases: relative viability (nuclei count vs DMSO), 5 days (fraction); higher = more cells survive
LXF-289 = test system: LXF-289
Procedure, shortened: (§1)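 The day after seeding in 1536-well plates, lung cancer cell lines were treated by pin tool with a single drug, or with a fixed anchor-drug dose together with five library-drug doses (not always all listed) in √10 steps. After 5 days, a combined fix-and-stain solution (final 0.05% Triton X-100, 1% formaldehyde, 1 ug/ml Hoechst) was added. Nuclei counted on 4× images gave relative viability as treated counts over vehicle counts, reported as the median of duplicate plates.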

NCI-H1944 = test system: NCI-H1944
Procedure, shortened: as §1

NCI-H2170 = test system: NCI-H2170
Procedure, shortened: as §1

ChaGo-K-1 = test system: ChaGo-K-1
Procedure, shortened: as §1

NCI-H647 = test system: NCI-H647
Procedure, shortened: as §1

EKVX = test system: EKVX
Procedure, shortened: as §1

NCI-H661 = test system: NCI-H661
Procedure, shortened: as §1

BEN = test system: BEN
Procedure, shortened: as §1

HCC-827 = test system: HCC-827
Procedure, shortened: as §1

RERF-LC-KJ = test system: RERF-LC-KJ
Procedure, shortened: as §1

NCI-H1355 = test system: NCI-H1355
Procedure, shortened: as §1

LK-2 = test system: LK-2
Procedure, shortened: as §1

NCI-H2126 = test system: NCI-H2126
Procedure, shortened: as §1

PC-14 = test system: PC-14
Procedure, shortened: as §1

HOP-62 = test system: HOP-62
Procedure, shortened: as §1

NCI-H1437 = test system: NCI-H1437
Procedure, shortened: as §1

NCI-H727 = test system: NCI-H727
Procedure, shortened: as §1

NCI-H1993 = test system: NCI-H1993
Procedure, shortened: as §1

SK-MES-1 = test system: SK-MES-1
Procedure, shortened: as §1

NCI-H1666 = test system: NCI-H1666
Procedure, shortened: as §1

LOU-NH91 = test system: LOU-NH91
Procedure, shortened: as §1

LCLC-103H = test system: LCLC-103H
Procedure, shortened: as §1

NCI-H441 = test system: NCI-H441
Procedure, shortened: as §1

Q: Which relative viability (LXF-289; first compound 0.002 µM) does the source give for `CCNC(=O)c1noc(-c2cc(C(C)C)c(O)cc2O)c1-c1ccc(CN2CCOCC2)cc1` [Luminespib] + C[C@@H](Oc1cc(-c2cnn(C3CCNCC3)c2)cnc1N)c1c(Cl)ccc(F)c1Cl [Crizotinib] (partner 1 µM) here?
A: 0.825

Q: What about the relative viability (LXF-289; first compound 0.006325 µM) of the same molecule?
A: 0.79

Q: What about the relative viability (LXF-289; first compound 0.02 µM) of the same molecule?
A: 0.894

Q: What about the relative viability (LXF-289; first compound 0.06325 µM) of the same molecule?
A: 0.459

Q: And the relative viability (LXF-289; first compound 0.2 µM)?
A: 0.123

Q: What about the relative viability (NCI-H1944; first compound 0.002 µM) of the same molecule?
A: 1.08

Q: What about the relative viability (NCI-H1944; first compound 0.006325 µM) of the same molecule?
A: 1.04

Q: What about the relative viability (NCI-H1944; first compound 0.02 µM) of the same molecule?
A: 0.775

Q: What about the relative viability (NCI-H1944; first compound 0.06325 µM) of the same molecule?
A: 0.955

Q: What about the relative viability (NCI-H1944; first compound 0.2 µM) of the same molecule?
A: 0.97

Q: And the relative viability (NCI-H2170; first compound 0.002 µM)?
A: 1.19

Q: And the relative viability (NCI-H2170; first compound 0.006325 µM)?
A: 1.23

Q: What about the relative viability (NCI-H2170; first compound 0.02 µM) of the same molecule?
A: 0.655

Q: And the relative viability (NCI-H2170; first compound 0.06325 µM)?
A: 1.08

Q: What about the relative viability (NCI-H2170; first compound 0.2 µM) of the same molecule?
A: 0.355

Q: And the relative viability (ChaGo-K-1; first compound 0.002 µM)?
A: 1.23

Q: And the relative viability (ChaGo-K-1; first compound 0.02 µM)?
A: 1.01

Q: And the relative viability (ChaGo-K-1; first compound 0.06325 µM)?
A: 0.562

Q: What about the relative viability (ChaGo-K-1; first compound 0.2 µM) of the same molecule?
A: 0.301

Q: And the relative viability (NCI-H647; first compound 0.002 µM)?
A: 1.22

Q: And the relative viability (NCI-H647; first compound 0.006325 µM)?
A: 1.07

Q: What about the relative viability (NCI-H647; first compound 0.02 µM) of the same molecule?
A: 1.15

Q: What about the relative viability (NCI-H647; first compound 0.06325 µM) of the same molecule?
A: 0.0916

Q: What about the relative viability (NCI-H647; first compound 0.2 µM) of the same molecule?
A: 0.0805

Q: And the relative viability (EKVX; first compound 0.002 µM)?
A: 0.985

Q: What about the relative viability (EKVX; first compound 0.006325 µM) of the same molecule?
A: 0.989

Q: What about the relative viability (EKVX; first compound 0.02 µM) of the same molecule?
A: 0.97

Q: And the relative viability (EKVX; first compound 0.06325 µM)?
A: 0.472

Q: What about the relative viability (EKVX; first compound 0.2 µM) of the same molecule?
A: 0.218

Q: And the relative viability (NCI-H661; first compound 0.006325 µM)?
A: 0.936

Q: What about the relative viability (NCI-H661; first compound 0.02 µM) of the same molecule?
A: 1.05

Q: And the relative viability (NCI-H661; first compound 0.06325 µM)?
A: 0.939

Q: And the relative viability (NCI-H661; first compound 0.2 µM)?
A: 0.715

Q: And the relative viability (BEN; first compound 0.002 µM)?
A: 0.792

Q: What about the relative viability (BEN; first compound 0.006325 µM) of the same molecule?
A: 0.834

Q: What about the relative viability (BEN; first compound 0.02 µM) of the same molecule?
A: 0.416

Q: What about the relative viability (BEN; first compound 0.06325 µM) of the same molecule?
A: 0.341

Q: What about the relative viability (BEN; first compound 0.2 µM) of the same molecule?
A: 0.203

Q: What about the relative viability (HCC-827; first compound 0.002 µM) of the same molecule?
A: 0.944

Q: What about the relative viability (HCC-827; first compound 0.006325 µM) of the same molecule?
A: 0.899

Q: What about the relative viability (HCC-827; first compound 0.02 µM) of the same molecule?
A: 0.887

Q: And the relative viability (HCC-827; first compound 0.06325 µM)?
A: 0.952

Q: And the relative viability (HCC-827; first compound 0.2 µM)?
A: 0.879

Q: What about the relative viability (RERF-LC-KJ; first compound 0.002 µM) of the same molecule?
A: 0.817

Q: And the relative viability (RERF-LC-KJ; first compound 0.006325 µM)?
A: 0.791

Q: And the relative viability (RERF-LC-KJ; first compound 0.02 µM)?
A: 0.877

Q: And the relative viability (RERF-LC-KJ; first compound 0.06325 µM)?
A: 0.948

Q: What about the relative viability (RERF-LC-KJ; first compound 0.2 µM) of the same molecule?
A: 0.223

Q: And the relative viability (NCI-H1355; first compound 0.002 µM)?
A: 1.1

Q: And the relative viability (NCI-H1355; first compound 0.006325 µM)?
A: 1.05

Q: And the relative viability (NCI-H1355; first compound 0.02 µM)?
A: 0.62

Q: What about the relative viability (NCI-H1355; first compound 0.06325 µM) of the same molecule?
A: 1.08

Q: What about the relative viability (NCI-H1355; first compound 0.2 µM) of the same molecule?
A: 1.08

Q: And the relative viability (LK-2; first compound 0.002 µM)?
A: 0.215

Q: What about the relative viability (LK-2; first compound 0.006325 µM) of the same molecule?
A: 0.217

Q: What about the relative viability (LK-2; first compound 0.02 µM) of the same molecule?
A: 0.269

Q: What about the relative viability (LK-2; first compound 0.06325 µM) of the same molecule?
A: 0.231

Q: What about the relative viability (LK-2; first compound 0.2 µM) of the same molecule?
A: 0.196

Q: What about the relative viability (NCI-H2126; first compound 0.002 µM) of the same molecule?
A: 1.08

Q: And the relative viability (NCI-H2126; first compound 0.006325 µM)?
A: 0.97

Q: What about the relative viability (NCI-H2126; first compound 0.02 µM) of the same molecule?
A: 0.84

Q: And the relative viability (NCI-H2126; first compound 0.06325 µM)?
A: 0.993

Q: What about the relative viability (NCI-H2126; first compound 0.2 µM) of the same molecule?
A: 0.951

Q: What about the relative viability (PC-14; first compound 0.002 µM) of the same molecule?
A: 0.973

Q: What about the relative viability (PC-14; first compound 0.006325 µM) of the same molecule?
A: 0.845

Q: And the relative viability (PC-14; first compound 0.02 µM)?
A: 1.12

Q: What about the relative viability (PC-14; first compound 0.06325 µM) of the same molecule?
A: 0.171

Q: What about the relative viability (PC-14; first compound 0.2 µM) of the same molecule?
A: 0.102

Q: And the relative viability (HOP-62; first compound 0.002 µM)?
A: 0.931

Q: What about the relative viability (HOP-62; first compound 0.006325 µM) of the same molecule?
A: 0.962

Q: What about the relative viability (HOP-62; first compound 0.02 µM) of the same molecule?
A: 0.79

Q: And the relative viability (HOP-62; first compound 0.06325 µM)?
A: 0.993

Q: What about the relative viability (HOP-62; first compound 0.2 µM) of the same molecule?
A: 0.875

Q: What about the relative viability (NCI-H1437; first compound 0.002 µM) of the same molecule?
A: 0.92

Q: What about the relative viability (NCI-H1437; first compound 0.006325 µM) of the same molecule?
A: 0.833

Q: What about the relative viability (NCI-H1437; first compound 0.02 µM) of the same molecule?
A: 1.05

Q: And the relative viability (NCI-H1437; first compound 0.06325 µM)?
A: 0.83

Q: And the relative viability (NCI-H1437; first compound 0.2 µM)?
A: 0.478

Q: What about the relative viability (NCI-H727; first compound 0.002 µM) of the same molecule?
A: 0.757

Q: What about the relative viability (NCI-H727; first compound 0.006325 µM) of the same molecule?
A: 0.744

Q: What about the relative viability (NCI-H727; first compound 0.02 µM) of the same molecule?
A: 0.739

Q: And the relative viability (NCI-H727; first compound 0.06325 µM)?
A: 0.212

Q: What about the relative viability (NCI-H727; first compound 0.2 µM) of the same molecule?
A: 0.204

Q: And the relative viability (NCI-H1993; first compound 0.002 µM)?
A: 0.929

Q: What about the relative viability (NCI-H1993; first compound 0.006325 µM) of the same molecule?
A: 0.953

Q: And the relative viability (NCI-H1993; first compound 0.02 µM)?
A: 0.884

Q: What about the relative viability (NCI-H1993; first compound 0.06325 µM) of the same molecule?
A: 0.743

Q: What about the relative viability (NCI-H1993; first compound 0.2 µM) of the same molecule?
A: 0.47

Q: What about the relative viability (SK-MES-1; first compound 0.002 µM) of the same molecule?
A: 0.984

Q: What about the relative viability (SK-MES-1; first compound 0.006325 µM) of the same molecule?
A: 1.03

Q: And the relative viability (SK-MES-1; first compound 0.02 µM)?
A: 1.08

Q: And the relative viability (SK-MES-1; first compound 0.06325 µM)?
A: 0.758

Q: What about the relative viability (SK-MES-1; first compound 0.2 µM) of the same molecule?
A: 0.147

Q: And the relative viability (NCI-H1666; first compound 0.002 µM)?
A: 1.04

Q: What about the relative viability (NCI-H1666; first compound 0.006325 µM) of the same molecule?
A: 0.929

Q: What about the relative viability (NCI-H1666; first compound 0.02 µM) of the same molecule?
A: 1.13

Q: What about the relative viability (NCI-H1666; first compound 0.06325 µM) of the same molecule?
A: 1

Q: And the relative viability (NCI-H1666; first compound 0.2 µM)?
A: 0.756

Q: What about the relative viability (LOU-NH91; first compound 0.002 µM) of the same molecule?
A: 0.765

Q: And the relative viability (LOU-NH91; first compound 0.006325 µM)?
A: 0.726

Q: What about the relative viability (LOU-NH91; first compound 0.02 µM) of the same molecule?
A: 0.55

Q: And the relative viability (LOU-NH91; first compound 0.06325 µM)?
A: 0.328

Q: What about the relative viability (LOU-NH91; first compound 0.2 µM) of the same molecule?
A: 0.351

Q: And the relative viability (LCLC-103H; first compound 0.002 µM)?
A: 1.02

Q: And the relative viability (LCLC-103H; first compound 0.006325 µM)?
A: 1.04

Q: And the relative viability (LCLC-103H; first compound 0.02 µM)?
A: 0.908

Q: What about the relative viability (LCLC-103H; first compound 0.06325 µM) of the same molecule?
A: 1.02

Q: What about the relative viability (LCLC-103H; first compound 0.2 µM) of the same molecule?
A: 1.15

Q: And the relative viability (NCI-H441; first compound 0.002 µM)?
A: 0.884

Q: And the relative viability (NCI-H441; first compound 0.006325 µM)?
A: 0.719

Q: What about the relative viability (NCI-H441; first compound 0.02 µM) of the same molecule?
A: 0.904

Q: And the relative viability (NCI-H441; first compound 0.06325 µM)?
A: 0.119

Q: What about the relative viability (NCI-H441; first compound 0.2 µM) of the same molecule?
A: 0.109
